Like-named read-outs stand apart in the source and are kept apart here.
Key:
Assay in all cases: biochemical
Parameters in all cases: Eurofins KinaseProfiler full panel at Km ATP, residual kinase activity (%) relative to DMSO
eEF-2K(h) = molecular target: T1, eEF-2K(h) (Homo sapiens, UniProt O00418)
T1 construct: gene EEF2K
T1 sequence (O00418 1-725): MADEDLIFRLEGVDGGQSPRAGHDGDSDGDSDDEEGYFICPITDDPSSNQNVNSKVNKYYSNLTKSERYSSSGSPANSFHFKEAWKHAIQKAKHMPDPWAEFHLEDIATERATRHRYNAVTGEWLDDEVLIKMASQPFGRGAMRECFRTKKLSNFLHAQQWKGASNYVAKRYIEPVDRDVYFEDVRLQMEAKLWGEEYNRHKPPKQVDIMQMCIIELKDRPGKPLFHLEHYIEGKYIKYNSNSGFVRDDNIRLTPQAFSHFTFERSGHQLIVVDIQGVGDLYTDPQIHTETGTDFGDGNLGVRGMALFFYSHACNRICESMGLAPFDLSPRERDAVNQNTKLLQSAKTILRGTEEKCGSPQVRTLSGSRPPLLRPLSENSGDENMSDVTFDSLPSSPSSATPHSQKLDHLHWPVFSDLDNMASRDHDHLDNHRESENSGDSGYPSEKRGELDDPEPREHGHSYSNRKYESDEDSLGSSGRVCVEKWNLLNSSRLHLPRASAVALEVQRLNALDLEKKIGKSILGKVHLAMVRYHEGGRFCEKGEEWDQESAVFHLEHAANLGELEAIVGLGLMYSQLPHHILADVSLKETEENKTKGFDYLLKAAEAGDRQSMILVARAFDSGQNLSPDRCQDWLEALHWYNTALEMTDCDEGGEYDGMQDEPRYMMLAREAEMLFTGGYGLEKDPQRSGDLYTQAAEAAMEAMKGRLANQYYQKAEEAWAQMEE
In short: (§1)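 Compounds screened at 10 µM in radiometric kinase activity assays at Km ATP, reported as remaining kinase activity (%). A KINOMEscan competition-binding screen at 10 µM measured DNA-tagged kinase retained on immobilized active-site ligand by qPCR.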

MARK1(h) = MARK1(h) (Homo sapiens, UniProt Q9P0L2)
In short: as §1

Hck(h) = Hck(h) (Homo sapiens, UniProt P08631)
In short: as §1

GRK6(h) = GRK6(h) (Homo sapiens, UniProt P43250)
In short: as §1

CaMKIV(h) = molecular target: T2, CaMKIV(h) (Homo sapiens, UniProt Q16566)
T2 construct: gene CAMK4
T2 sequence (Q16566 1-473): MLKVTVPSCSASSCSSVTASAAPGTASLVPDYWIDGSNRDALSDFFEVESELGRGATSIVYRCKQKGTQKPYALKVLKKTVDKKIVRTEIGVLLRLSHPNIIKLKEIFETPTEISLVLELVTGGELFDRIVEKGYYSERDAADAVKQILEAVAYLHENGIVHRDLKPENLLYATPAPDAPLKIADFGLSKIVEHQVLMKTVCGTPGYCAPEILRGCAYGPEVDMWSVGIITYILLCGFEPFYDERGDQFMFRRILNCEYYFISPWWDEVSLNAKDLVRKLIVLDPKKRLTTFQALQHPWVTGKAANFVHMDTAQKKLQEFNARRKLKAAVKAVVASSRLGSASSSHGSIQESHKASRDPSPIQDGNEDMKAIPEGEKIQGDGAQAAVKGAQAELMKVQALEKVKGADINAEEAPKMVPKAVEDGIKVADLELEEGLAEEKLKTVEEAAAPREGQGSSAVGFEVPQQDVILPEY
In short: as §1

DNA-PK(h) = molecular target: T3, DNA-PK(h) (Homo sapiens, UniProt P78527)
T3 construct: gene PRKDC
In short: as §1

CLK1(h) = CLK1(h) (Homo sapiens, UniProt P49759)
In short: as §1

MAP4K5(h) = MAP4K5(h) (Homo sapiens, UniProt Q9Y4K4)
In short: as §1

TAF1L(h) = TAF1L(h) (Homo sapiens, UniProt Q8IZX4)
In short: as §1

[1] = read-out: Residual activity (%) 5at
[2] = read-out: Residual activity (%) 5as
[3] = read-out: Residual activity (%) 5ay
[4] = read-out: Residual activity (%) Spautin-1 5aa

Chain of MARK1(h) (Q9P0L2 whole entry): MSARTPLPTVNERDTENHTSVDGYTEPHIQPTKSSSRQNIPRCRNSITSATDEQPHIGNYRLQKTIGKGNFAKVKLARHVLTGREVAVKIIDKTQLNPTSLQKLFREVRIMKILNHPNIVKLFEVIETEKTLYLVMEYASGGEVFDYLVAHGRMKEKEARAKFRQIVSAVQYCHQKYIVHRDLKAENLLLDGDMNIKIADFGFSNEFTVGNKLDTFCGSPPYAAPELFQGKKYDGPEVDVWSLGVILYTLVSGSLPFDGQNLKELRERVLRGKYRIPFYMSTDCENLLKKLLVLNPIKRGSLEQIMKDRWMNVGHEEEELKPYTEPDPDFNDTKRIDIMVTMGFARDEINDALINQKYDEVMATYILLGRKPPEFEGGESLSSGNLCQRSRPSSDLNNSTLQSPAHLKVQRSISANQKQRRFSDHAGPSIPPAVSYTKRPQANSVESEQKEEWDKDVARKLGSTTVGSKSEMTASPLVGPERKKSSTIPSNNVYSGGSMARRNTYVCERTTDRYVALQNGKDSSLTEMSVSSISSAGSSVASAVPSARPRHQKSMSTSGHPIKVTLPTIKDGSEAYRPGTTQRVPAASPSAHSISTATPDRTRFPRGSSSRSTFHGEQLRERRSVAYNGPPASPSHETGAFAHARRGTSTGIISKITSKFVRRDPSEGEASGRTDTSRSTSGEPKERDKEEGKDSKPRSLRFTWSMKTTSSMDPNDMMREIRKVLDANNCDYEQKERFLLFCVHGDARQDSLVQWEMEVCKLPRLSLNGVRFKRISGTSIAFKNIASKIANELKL
Chain of CLK1(h) (P49759 whole entry): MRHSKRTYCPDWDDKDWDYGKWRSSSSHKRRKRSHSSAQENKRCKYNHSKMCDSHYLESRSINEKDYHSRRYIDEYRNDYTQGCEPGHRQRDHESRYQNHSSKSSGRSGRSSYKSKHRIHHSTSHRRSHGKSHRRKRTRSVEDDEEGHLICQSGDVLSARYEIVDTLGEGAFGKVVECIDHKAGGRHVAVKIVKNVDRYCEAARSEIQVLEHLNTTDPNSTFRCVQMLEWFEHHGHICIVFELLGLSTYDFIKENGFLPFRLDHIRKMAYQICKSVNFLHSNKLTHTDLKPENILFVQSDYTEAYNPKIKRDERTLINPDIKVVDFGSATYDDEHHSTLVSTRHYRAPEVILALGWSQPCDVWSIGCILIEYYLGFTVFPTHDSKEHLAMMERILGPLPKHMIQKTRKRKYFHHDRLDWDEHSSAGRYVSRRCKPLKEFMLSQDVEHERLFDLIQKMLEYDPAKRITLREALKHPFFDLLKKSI
Chain of TAF1L(h) (Q8IZX4 whole entry): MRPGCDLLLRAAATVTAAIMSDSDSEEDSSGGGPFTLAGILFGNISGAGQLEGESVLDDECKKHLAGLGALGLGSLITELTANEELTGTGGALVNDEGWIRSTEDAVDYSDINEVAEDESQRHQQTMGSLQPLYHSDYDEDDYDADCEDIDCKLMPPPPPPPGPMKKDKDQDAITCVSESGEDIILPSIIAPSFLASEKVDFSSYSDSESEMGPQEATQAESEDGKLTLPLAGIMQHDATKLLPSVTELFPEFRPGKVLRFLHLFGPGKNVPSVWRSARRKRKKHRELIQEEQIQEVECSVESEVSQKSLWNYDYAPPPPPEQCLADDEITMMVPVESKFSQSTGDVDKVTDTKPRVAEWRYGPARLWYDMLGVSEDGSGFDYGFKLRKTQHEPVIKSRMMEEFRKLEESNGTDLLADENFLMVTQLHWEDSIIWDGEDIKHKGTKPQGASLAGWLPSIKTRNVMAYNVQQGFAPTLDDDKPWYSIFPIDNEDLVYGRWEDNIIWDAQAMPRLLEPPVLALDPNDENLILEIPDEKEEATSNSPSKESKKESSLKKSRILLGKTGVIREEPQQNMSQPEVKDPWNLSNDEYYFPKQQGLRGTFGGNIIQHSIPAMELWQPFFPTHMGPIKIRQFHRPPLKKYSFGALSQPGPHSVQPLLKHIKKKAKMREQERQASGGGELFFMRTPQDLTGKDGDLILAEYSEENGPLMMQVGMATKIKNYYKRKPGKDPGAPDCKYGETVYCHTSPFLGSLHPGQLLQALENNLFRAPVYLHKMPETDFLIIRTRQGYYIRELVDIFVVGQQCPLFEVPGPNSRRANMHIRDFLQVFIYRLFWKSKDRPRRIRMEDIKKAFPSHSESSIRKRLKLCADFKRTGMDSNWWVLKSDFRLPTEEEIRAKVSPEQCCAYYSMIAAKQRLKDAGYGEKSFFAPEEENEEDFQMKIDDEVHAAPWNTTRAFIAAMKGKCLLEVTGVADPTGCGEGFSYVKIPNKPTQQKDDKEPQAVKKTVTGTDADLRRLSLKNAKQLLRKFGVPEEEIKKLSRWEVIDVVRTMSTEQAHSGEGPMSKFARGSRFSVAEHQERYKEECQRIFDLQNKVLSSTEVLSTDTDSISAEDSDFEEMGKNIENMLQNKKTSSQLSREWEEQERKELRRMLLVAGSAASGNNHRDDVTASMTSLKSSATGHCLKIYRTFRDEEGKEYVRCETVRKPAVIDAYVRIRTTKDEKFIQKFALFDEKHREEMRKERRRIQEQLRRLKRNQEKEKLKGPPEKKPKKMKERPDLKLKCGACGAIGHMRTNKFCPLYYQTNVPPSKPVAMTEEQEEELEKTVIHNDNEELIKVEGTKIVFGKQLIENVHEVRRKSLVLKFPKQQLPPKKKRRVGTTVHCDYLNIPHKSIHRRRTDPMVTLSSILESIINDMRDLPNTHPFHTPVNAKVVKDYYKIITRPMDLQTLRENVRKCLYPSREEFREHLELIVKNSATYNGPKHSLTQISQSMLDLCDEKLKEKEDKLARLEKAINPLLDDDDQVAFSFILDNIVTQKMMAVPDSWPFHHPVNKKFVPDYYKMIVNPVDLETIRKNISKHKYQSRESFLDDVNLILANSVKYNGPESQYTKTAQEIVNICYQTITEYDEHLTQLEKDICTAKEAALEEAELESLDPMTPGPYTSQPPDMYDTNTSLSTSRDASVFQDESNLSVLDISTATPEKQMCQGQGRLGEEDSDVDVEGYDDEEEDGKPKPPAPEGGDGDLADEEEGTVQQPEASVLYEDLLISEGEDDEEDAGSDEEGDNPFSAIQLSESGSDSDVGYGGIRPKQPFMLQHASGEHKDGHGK
Chain of GRK6(h) (P43250 whole entry): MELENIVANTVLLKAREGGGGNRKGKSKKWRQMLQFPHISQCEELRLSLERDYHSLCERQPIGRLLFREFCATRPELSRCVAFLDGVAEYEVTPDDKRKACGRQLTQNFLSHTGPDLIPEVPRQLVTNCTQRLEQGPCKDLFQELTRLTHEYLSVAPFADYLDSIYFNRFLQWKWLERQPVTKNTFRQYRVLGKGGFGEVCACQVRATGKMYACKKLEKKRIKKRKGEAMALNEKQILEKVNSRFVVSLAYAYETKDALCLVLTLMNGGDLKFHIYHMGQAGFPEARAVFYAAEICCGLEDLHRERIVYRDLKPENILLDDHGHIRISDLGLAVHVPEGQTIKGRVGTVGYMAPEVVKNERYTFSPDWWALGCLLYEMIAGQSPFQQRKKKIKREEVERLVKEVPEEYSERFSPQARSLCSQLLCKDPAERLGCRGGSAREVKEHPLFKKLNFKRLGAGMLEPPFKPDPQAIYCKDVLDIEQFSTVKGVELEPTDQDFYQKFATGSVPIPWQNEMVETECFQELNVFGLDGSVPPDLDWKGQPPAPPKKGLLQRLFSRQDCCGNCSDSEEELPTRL
Chain of Hck(h) (P08631 whole entry): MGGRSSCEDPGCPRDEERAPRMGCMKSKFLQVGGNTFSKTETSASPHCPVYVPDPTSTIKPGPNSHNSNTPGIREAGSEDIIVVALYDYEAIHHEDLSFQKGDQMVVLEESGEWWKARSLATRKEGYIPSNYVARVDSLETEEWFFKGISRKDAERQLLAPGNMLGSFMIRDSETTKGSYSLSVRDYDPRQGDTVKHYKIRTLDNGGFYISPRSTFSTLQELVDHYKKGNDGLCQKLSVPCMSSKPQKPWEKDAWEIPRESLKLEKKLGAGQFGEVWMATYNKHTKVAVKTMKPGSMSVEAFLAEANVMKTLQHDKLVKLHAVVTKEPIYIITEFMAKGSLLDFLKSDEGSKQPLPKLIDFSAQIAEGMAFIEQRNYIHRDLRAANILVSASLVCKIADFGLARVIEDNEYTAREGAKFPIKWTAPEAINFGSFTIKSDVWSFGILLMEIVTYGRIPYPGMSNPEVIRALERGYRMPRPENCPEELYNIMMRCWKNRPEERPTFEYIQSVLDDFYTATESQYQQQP
Chain of MAP4K5(h) (Q9Y4K4 whole entry): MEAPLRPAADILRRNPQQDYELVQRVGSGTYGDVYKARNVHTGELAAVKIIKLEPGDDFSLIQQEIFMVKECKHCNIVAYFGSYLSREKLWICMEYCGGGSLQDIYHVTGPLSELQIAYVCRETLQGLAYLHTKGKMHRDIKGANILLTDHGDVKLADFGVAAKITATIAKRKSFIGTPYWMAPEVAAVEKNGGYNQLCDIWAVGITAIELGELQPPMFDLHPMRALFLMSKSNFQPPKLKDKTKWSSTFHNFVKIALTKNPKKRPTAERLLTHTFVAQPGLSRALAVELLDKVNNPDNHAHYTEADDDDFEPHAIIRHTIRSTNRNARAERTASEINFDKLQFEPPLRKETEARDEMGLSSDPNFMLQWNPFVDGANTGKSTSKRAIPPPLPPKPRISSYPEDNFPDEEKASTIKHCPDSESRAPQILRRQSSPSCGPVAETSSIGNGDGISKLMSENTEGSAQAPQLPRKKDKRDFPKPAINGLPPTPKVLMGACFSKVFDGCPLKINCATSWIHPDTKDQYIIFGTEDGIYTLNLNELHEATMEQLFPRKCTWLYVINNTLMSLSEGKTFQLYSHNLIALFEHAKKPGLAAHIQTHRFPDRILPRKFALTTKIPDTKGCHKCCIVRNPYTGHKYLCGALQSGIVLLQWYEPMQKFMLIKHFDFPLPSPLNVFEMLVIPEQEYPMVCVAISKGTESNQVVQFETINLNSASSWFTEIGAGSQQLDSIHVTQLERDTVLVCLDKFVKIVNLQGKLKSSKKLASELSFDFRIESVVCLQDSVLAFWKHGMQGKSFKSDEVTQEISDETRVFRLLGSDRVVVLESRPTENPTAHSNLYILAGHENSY

Compound `Fc1ccc2ncnc(NCCc3ccc(Cl)cc3)c2c1` [5at, N-[2-(4-Chlorophenyl)Ethyl]-6-Fluoro-4-Quinazolinamine] has a remaining activity at 10 µM (eEF-2K(h); [1]) of 85%, a remaining activity at 10 µM (MARK1(h); [1]) of 82% and a remaining activity at 10 µM (Hck(h); [1]) of 62%. It also gave a remaining activity at 10 µM (GRK6(h); [1]) of 99%, a remaining activity at 10 µM (CaMKIV(h); [1]) of 81% and a remaining activity at 10 µM (DNA-PK(h); [1]) of 85%. The remaining activity at 10 µM (CLK1(h); [1]) was 28%, the remaining activity at 10 µM (MAP4K5(h); [1]) was 97% and the remaining activity at 10 µM (TAF1L(h); [1]) was 70%.

In the case of `Fc1ccc(CCNc2ncnc3ccc(F)cc23)cc1` [5as, 6-Fluoro-N-[2-(4-Fluorophenyl)Ethyl]-4-Quinazolinamine], the remaining activity at 10 µM (eEF-2K(h); [2]) is reported as 85%, the remaining activity at 10 µM (MARK1(h); [2]) is reported as 96% and the remaining activity at 10 µM (Hck(h); [2]) is reported as 74%. For the same compound, the remaining activity at 10 µM (GRK6(h); [2]) was 104%, the remaining activity at 10 µM (CaMKIV(h); [2]) was 75% and the remaining activity at 10 µM (DNA-PK(h); [2]) was 74%. The remaining activity at 10 µM (CLK1(h); [2]) was 28%, the remaining activity at 10 µM (MAP4K5(h); [2]) was 89% and the remaining activity at 10 µM (TAF1L(h); [2]) was 66%.

`COc1ccc2ncnc(Nc3cccc(F)c3)c2c1` [5ay, N-(3-Fluorophenyl)-6-Methoxy-4-Quinazolinamine] gave a remaining activity at 10 µM (eEF-2K(h); [3]) of 79%, a remaining activity at 10 µM (MARK1(h); [3]) of 89% and a remaining activity at 10 µM (Hck(h); [3]) of 64%. For the same compound, the remaining activity at 10 µM (GRK6(h); [3]) was 110%, the remaining activity at 10 µM (CaMKIV(h); [3]) was 68% and the remaining activity at 10 µM (DNA-PK(h); [3]) was 72%. It also gave a remaining activity at 10 µM (CLK1(h); [3]) of 14%, a remaining activity at 10 µM (MAP4K5(h); [3]) of 80% and a remaining activity at 10 µM (TAF1L(h); [3]) of 32%.

For `Fc1ccc(CNc2ncnc3ccc(F)cc23)cc1` [5aa, 6-Fluoro-N-(4-fluorobenzyl)-4-Quinazolinamine], the remaining activity at 10 µM (eEF-2K(h); [4]) was 87%, the remaining activity at 10 µM (MARK1(h); [4]) was 89% and the remaining activity at 10 µM (Hck(h); [4]) was 72%. The remaining activity at 10 µM (GRK6(h); [4]) was 100%, the remaining activity at 10 µM (CaMKIV(h); [4]) was 81% and the remaining activity at 10 µM (DNA-PK(h); [4]) was 89%. For the same compound, the remaining activity at 10 µM (CLK1(h); [4]) was 23%, the remaining activity at 10 µM (MAP4K5(h); [4]) was 92% and the remaining activity at 10 µM (TAF1L(h); [4]) was 80%.

Reference: PMC7827406, “Structure–Activity Relationship (SAR) Study of Spautin-1 to Entail the Discovery of Novel NEK4 Inhibitors” (International Journal of Molecular Sciences, 2021)
